Columns and labels:
[1] = biological target: T1, ACK1 (Homo sapiens, UniProt Q07912); experiment: ACK1 IC50 (Table 1); format: biochemical
[2] = biological target: T1, ACK1; experiment: Reaction Biology 33P Hotspot assay; format: biochemical
[3] = biological target: T1, ACK1; experiment: ACK1 ELISA; format: biochemical; settings: read-out: ACK1 ELISA % Inhibition at 100 nM
[4] = test system: AKT Tyr176 phosphorylation; settings: pancreatic cancer cells; cited from earlier work
[5] = test system: AR Tyr267 phosphorylation; settings: cited from earlier work
[6] = test system: castration and radioresistant prostate xenograft tumor; settings: cited from earlier work
[7] = mouse models; cited from earlier work
[8] = test system: ACK1 in NCI-H1703 human non-small cell lung cancer cells; settings: read-out: IC50 for ACK1 inhibition in NCI-H1703 cells (ELISA); cited from earlier work
[9] = test system: ACK1 autophosphorylation (Tyr284); settings: HEK293 cells, 2 μM; cited from earlier work
[10] = test system: A549 lung cancer cell; settings: 10 μM; cited from earlier work

T1 sequence (Q07912 whole entry): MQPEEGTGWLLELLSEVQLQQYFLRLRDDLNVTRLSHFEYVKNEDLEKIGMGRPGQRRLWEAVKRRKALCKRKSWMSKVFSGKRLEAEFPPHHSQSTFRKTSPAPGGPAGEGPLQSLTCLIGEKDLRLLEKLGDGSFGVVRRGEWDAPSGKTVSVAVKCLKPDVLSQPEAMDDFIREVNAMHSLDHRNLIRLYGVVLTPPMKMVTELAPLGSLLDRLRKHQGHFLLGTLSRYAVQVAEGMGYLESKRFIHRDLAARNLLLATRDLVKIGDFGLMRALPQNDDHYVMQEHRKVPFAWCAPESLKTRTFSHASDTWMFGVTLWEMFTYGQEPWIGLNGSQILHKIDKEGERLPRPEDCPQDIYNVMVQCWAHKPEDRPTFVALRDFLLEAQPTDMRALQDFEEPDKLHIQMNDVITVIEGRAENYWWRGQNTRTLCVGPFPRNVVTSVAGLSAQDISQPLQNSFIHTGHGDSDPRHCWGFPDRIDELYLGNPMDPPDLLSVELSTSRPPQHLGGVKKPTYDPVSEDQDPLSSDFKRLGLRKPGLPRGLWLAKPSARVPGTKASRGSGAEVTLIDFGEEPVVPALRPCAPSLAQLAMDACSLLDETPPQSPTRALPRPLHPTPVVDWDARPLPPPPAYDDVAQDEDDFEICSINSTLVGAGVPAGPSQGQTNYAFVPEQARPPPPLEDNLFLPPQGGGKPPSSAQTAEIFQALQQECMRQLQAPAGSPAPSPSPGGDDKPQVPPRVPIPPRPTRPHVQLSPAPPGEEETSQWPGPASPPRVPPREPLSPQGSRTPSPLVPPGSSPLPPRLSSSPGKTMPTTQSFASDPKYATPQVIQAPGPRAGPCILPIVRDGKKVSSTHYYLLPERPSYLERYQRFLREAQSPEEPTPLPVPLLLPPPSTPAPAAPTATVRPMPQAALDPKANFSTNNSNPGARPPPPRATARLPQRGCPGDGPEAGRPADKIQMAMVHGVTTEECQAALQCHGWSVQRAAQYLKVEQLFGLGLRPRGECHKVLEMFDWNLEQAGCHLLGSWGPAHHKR

SMILES: CN1CCN(c2ccc(Nc3ncc(Cl)c(NCC4CCOCC4)n3)cc2F)CC1 [5-chloro-N^2-(3-fluoro-4-(4-methylpiperazin-1-yl)phenyl)-N^4-((tetrahydro-2H-pyran-4-yl)methyl)pyrimidine-2,4-diamine]
- IC50 [1]: 19.8 nM

SMILES: CN1CCN(c2cccc(Nc3ncc(Cl)c(NC[C@H]4CCCO4)n3)c2)CC1 [(R)-5-chloro-N^2-(3-(4-methylpiperazin-1-yl)phenyl)-N^4-((tetrahydrofuran-2-yl)methyl)pyrimidine-2,4-diamine]
- IC50 [2]: 88 nM

SMILES: CN1CCC(c2cc(F)c(Nc3ncc(Cl)c(NC[C@H]4CCCO4)n3)cc2F)CC1 [(R)-5-chloro-N^2-(2,5-difluoro-4-(1-methylpiperidin-4-yl)phenyl)-N^4-((tetrahydrofuran-2-yl)methyl)pyrimidine-2,4-diamine]
- IC50 [1]: 44.7 nM

SMILES: COc1cc(N2CCN(C)CC2)ccc1Nc1ncc(Cl)c(NCc2ccccc2)n1 [N^4-benzyl-5-chloro-N^2-(2-methoxy-4-(4-methylpiperazin-1-yl)phenyl)pyrimidine-2,4-diamine]
- inhibition at 0.1 µM [3]: 98.2%
- IC50 [1]: 48.2 nM

SMILES: c1ccc(-c2oc3ncnc(NC[C@@H]4CCCO4)c3c2-c2ccccc2)cc1 [Compound 1b]
- ACK1 dependent AKT Tyr176 phosphorylation [4]: inhibits
- AR Tyr267 phosphorylation [5]: inhibits
- xenograft tumor growth [6]: inhibits

SMILES: COc1c(Nc2ncc(Cl)c(NCC3CCOCC3)n2)ccc(N2CCN(C)CC2)c1F [5-chloro-N^2-(3-fluoro-2-methoxy-4-(4-methylpiperazin-1-yl)phenyl)-N^4-((tetrahydro-2H-pyran-4-yl)methyl)pyrimidine-2,4-diamine]
- IC50 [2]: 87.9 nM

SMILES: CN1CCN(c2ccc(Nc3ncc(Cl)c(NCc4ccc(F)cc4)n3)cc2)CC1 [5-chloro-N^4-(4-fluorobenzyl)-N^2-(4-(4-methylpiperazin-1-yl)phenyl)pyrimidine-2,4-diamine]
- inhibition at 0.1 µM [3]: 94%
- IC50 [1]: 35.6 nM

SMILES: CN1CCN(c2ccc(Nc3ncc(Cl)c(NCC4CCOCC4)n3)cc2)CC1 [5-chloro-N^2-(4-(4-methylpiperazin-1-yl)phenyl)-N^4-((tetrahydro-2H-pyran-4-yl)methyl)pyrimidine-2,4-diamine]
- IC50 [1]: 20.5 nM

SMILES: COc1cc(Oc2ccccc2)ccc1-c1nc(C2CC(C)(O)C2)n2ccnc(N)c12 (centres unmarked) [Compound 4]
- oral bioavailability [7]: orally bioavailable
- IC50 [8]: 35 nM

SMILES: CN1CCC(c2ccc(Nc3ncc(Cl)c(NCC4CCOCC4)n3)cc2)CC1 [5-chloro-N^2-(4-(1-methylpiperidin-4-yl)phenyl)-N^4-((tetrahydro-2H-pyran-4-yl)methyl)pyrimidine-2,4-diamine]
- IC50 [1]: 39.5 nM

SMILES: CC(C)Oc1cc(Nc2ncc(Cl)c(NC[C@H]3CCCO3)n2)ccc1C1CCN(C)CC1 [(R)-5-chloro-N^2-(3-isopropoxy-4-(1-methylpiperidin-4-yl)phenyl)-N^4-((tetrahydrofuran-2-yl)methyl)pyrimidine-2,4-diamine]
- IC50 [2]: 62 nM

SMILES: CC(=O)N1CCN(c2ccc(Nc3ncc(Cl)c(NCC4CCOCC4)n3)cc2OC(C)C)CC1 [1-(4-(4-((5-chloro-4-(((tetrahydro-2H-pyran-4-yl)methyl)amino)pyrimidin-2-yl)amino)-2-isopropoxyphenyl)piperazin-1-yl)ethan-1-one]
- IC50 [2]: 9.87 nM

SMILES: CC(=O)N1CCN(c2ccc(Nc3ncc(Cl)c(NCC4CCOCC4)n3)cc2)CC1 [1-(4-(4-((5-chloro-4-(((tetrahydro-2H-pyran-4-yl)methyl)amino)pyrimidin-2-yl)amino)phenyl)piperazin-1-yl)ethan-1-one]
- IC50 [2]: 26.6 nM

SMILES: COc1cc(Nc2ncc(Cl)c(NC[C@H]3CCCO3)n2)ccc1C1CCN(C)CC1 [(R)-5-chloro-N^2-(3-methoxy-4-(1-methylpiperidin-4-yl)phenyl)-N^4-((tetrahydrofuran-2-yl)methyl)pyrimidine-2,4-diamine]
- IC50 [2]: 87.2 nM

SMILES: COc1cc(N2CCN(C)CC2)ccc1Nc1ncc2c(n1)N(C)c1ccccc1C(=O)N2 [Compound 3]
- EGF induced ACK1 autophosphorylation (Tyr284) [9]: abolishes
- A549 lung cancer cell growth [10]: inhibits

SMILES: COc1cc(N2CCN(C)CC2)c(F)cc1Nc1ncc(Cl)c(NCC2CCOCC2)n1 [5-chloro-N^2-(5-fluoro-2-methoxy-4-(4-methylpiperazin-1-yl)phenyl)-N4-((tetrahydro-2H-pyran-4-yl)methyl)pyrimidine-2,4-diamine]
- IC50 [2]: 11.9 nM

SMILES: COc1cc(N2CCN(C)CC2)ccc1Nc1ncc(Cl)c(NCC2CCOCC2)n1 [5-chloro-N^2-(2-methoxy-4-(4-methylpiperazin-1-yl)phenyl)-N^4-((tetrahydro-2H-pyran-4-yl)methyl)pyrimidine-2,4-diamine]
- IC50 [1]: 14.9 nM

SMILES: COCCOCc1cc(Nc2ncc(Cl)c(NC[C@H]3CCCO3)n2)ccc1N1CCN(C)CC1 [(R)-5-chloro-N^2-(3-((2-methoxyethoxy)methyl)-4-(4-methylpiperazin-1-yl)phenyl)-N^4-((tetrahydrofuran-2-yl)methyl)pyrimidine-2,4-diamine]
- IC50 [2]: 198 nM

SMILES: COc1ccc(CNc2nc(Nc3ccc(N4CCN(C)CC4)cc3OC)ncc2Cl)cc1 [5-chloro-N^2-(2-methoxy-4-(4-methylpiperazin-1-yl)phenyl)-N^4-(4-methoxybenzyl)pyrimidine-2,4-diamine]
- inhibition at 0.1 µM [3]: 70.3%
- IC50 [1]: 82.9 nM

SMILES: COc1cc(N2CCN(C)CC2)ccc1Nc1ncc(Cl)c(NCc2ccc(Cl)cc2Cl)n1 [5-chloro-N^4-(2,4-dichlorobenzyl)-N^2-(2-methoxy-4-(4-methylpiperazin-1-yl)phenyl)pyrimidine-2,4-diamine]
- inhibition at 0.1 µM [3]: 78.1%
- IC50 [1]: 70.1 nM

SMILES: CN1CCN(c2ccc(Nc3ncc(Cl)c(NC[C@H]4CCCO4)n3)cc2CO)CC1
- IC50 [2]: 51 nM

SMILES: CN1CCN(Cc2ccc(Nc3ncc(Cl)c(NCC4CCCO4)n3)cc2)CC1 (centres unmarked) [5-chloro-N^2-(4-((4-methylpiperazin-1-yl)methyl)phenyl)-N^4-((tetrahydrofuran-2-yl)methyl)pyrimidine-2,4-diamine]
- IC50 [2]: 145 nM

SMILES: CC(C)OCc1cc(Nc2ncc(Cl)c(NC[C@H]3CCCO3)n2)ccc1N1CCN(C)CC1 [(R)-5-chloro-N^2-(3-(isopropoxymethyl)-4-(4-methylpiperazin-1-yl)phenyl)-N^4-((tetrahydrofuran-2-yl)methyl)pyrimidine-2,4-diamine]
- IC50 [2]: 167 nM

SMILES: COc1cc(N2CCN(C)CC2)ccc1Nc1ncc(Cl)c(NCc2ccc(F)cc2)n1 [5-chloro-N^4-(4-fluorobenzyl)-N^2-(2-methoxy-4-(4-methylpiperazin-1-yl)phenyl)pyrimidine-2,4-diamine]
- inhibition at 0.1 µM [3]: 91.2%
- IC50 [1]: 43.9 nM

SMILES: COc1cc(C2CCN(C)CC2)ccc1Nc1ncc(Cl)c(NCC2CCOCC2)n1 [5-chloro-N^2-(2-methoxy-4-(1-methylpiperidin-4-yl)phenyl)-N^4-((tetrahydro-2H-pyran-4-yl)methyl)pyrimidine-2,4-diamine]
- IC50 [1]: 20.2 nM

SMILES: CN1CCN(c2ccc(Nc3ncc(Cl)c(NC[C@H]4CCCO4)n3)cc2C#N)CC1
- IC50 [2]: 112 nM

SMILES: COc1cc(N2CCN(C)CC2)ccc1Nc1ncc(Cl)c(NCc2ccc(C)cc2)n1 [5-chloro-N^2-(2-methoxy-4-(4-methylpiperazin-1-yl)phenyl)-N^4-(4-methylbenzyl)pyrimidine-2,4-diamine]
- inhibition at 0.1 µM [3]: 77.6%
- IC50 [1]: 50.8 nM

SMILES: Cc1cc(Nc2ncc(Cl)c(NC[C@H]3CCCO3)n2)c(F)cc1C1CCN(C)CC1 [(R)-5-chloro-N^2-(2-fluoro-5-methyl-4-(1-methylpiperidin-4-yl)phenyl)-N^4-((tetrahydrofuran-2-yl)methyl)pyrimidine-2,4-diamine]
- IC50 [1]: 85.3 nM

SMILES: COc1cc(N2CCN(C)CC2)ccc1Nc1ncc(Cl)c(NCc2ccc(Cl)cc2)n1 [5-chloro-N^4-(4-chlorobenzyl)-N^2-(2-methoxy-4-(4-methylpiperazin-1-yl)phenyl)pyrimidine-2,4-diamine]
- inhibition at 0.1 µM [3]: 67.9%

SMILES: COc1cc(N2CCN(C(C)=O)CC2)ccc1Nc1ncc(Cl)c(NCC2CCOCC2)n1 [1-(4-(4-((5-chloro-4-(((tetrahydro-2H-pyran-4-yl)methyl)amino)pyrimidin-2-yl)amino)-3-methoxyphenyl)piperazin-1-yl)ethan-1-one]
- IC50 [2]: 17.3 nM

SMILES: CN1CCC(c2ccc(Nc3ncc(Cl)c(NCC4CCOCC4)n3)cc2F)CC1 [5-chloro-N^2-(3-fluoro-4-(1-methylpiperidin-4-yl)phenyl)-N^4-((tetrahydro-2H-pyran-4-yl)methyl)pyrimidine-2,4-diamine]
- IC50 ([1]; unit inferred): 35.9 nM

— patent US12630535B2, “Inhibitors of ACK1/TNK2 tyrosine kinase” (H. LEE MOFFITT CANCER CENTER AND RESEARCH INSTITUTE, INC., priority 2020, dated 2026)
